Assay results as given in the supplement of paper PMC11208160.

Assay: recombinant barcode read abundance after kanamycin selection (control-corrected) (log10(CPM+1)); higher = more efficient recombination; sequences stand for … in AGTGCAGAGAAAATCGGCCAGTTTTCTCTGCCTGCAGTCCGCATGCCGT…ATTTATGCAGCGGACTGCCTTTCTCCCAAAGTGATAAACCGGACAGTATCATGGACCGGTTTTCCCGGTAATCCGTATTTGCAAGGTTGGTTTCACT; site = the 11-nt target
Method in brief: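 Each value is log10(CPM+1). It describes recombination efficiency, taken as averaged, control-corrected counts per million of barcodes at recombinant junctions. The pooled E. coli library paired targets with IS621 bridge RNA target-binding loops, was co-electroporated with a donor plasmid, and was plated twice on chloramphenicol/ampicillin LB agar (control) and twice on chloramphenicol/ampicillin/kanamycin containing 0.1 mM IPTG.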

Sequence | recombinant barcode read abundance (log10)
CATATTATTTGGGTTCTAACCTGTTGCCTAA [CATATTACTAG_LTGcore_TT_RTGcore_TT] (site CATATTACTAG) (LTG core: TT, RTG core: TT) | 0.0172
GCGCGACTGTGGGTTCTAACCTGTTGCTTCA [GCGCGACCTAA_LTGcore_TG_RTGcore_TG] (site GCGCGACCTAA) (LTG core: TG, RTG core: TG) | 0.0758
TGTATTCCTTGGGTTCTAACCTGTTGCCTCT [TGTATTCCTAG_LTGcore_CT_RTGcore_AG] (site TGTATTCCTAG) (LTG core: CT, RTG core: AG) | 0.0303
CATATTACTTGGGTTCTAACCTGTTGCCTCT [CATATTACTAG_LTGcore_CT_RTGcore_AG] (site CATATTACTAG) (LTG core: CT, RTG core: AG) | 0.0539
AGGCGGTCTTGGGTTCTAACCTGTTGCTTAA [AGGCGGTCTAA_LTGcore_CT_RTGcore_TT] (site AGGCGGTCTAA) (LTG core: CT, RTG core: TT) | 0.0737
GGCTCCCCTTGGGTTCTAACCTGTTGCGGTC [GGCTCCCCTCC_LTGcore_CT_RTGcore_GA] (site GGCTCCCCTCC) (LTG core: CT, RTG core: GA) | 0.0253
TAAGAATCTTGGGTTCTAACCTGTTGCCTAG [TAAGAATCTAG_LTGcore_CT_RTGcore_CT] (site TAAGAATCTAG) (LTG core: CT, RTG core: CT) | 1.3
GAGTCCAACTGGGTTCTAACCTGTTGCGTGT [GAGTCCACTAC_LTGcore_AC_RTGcore_AC] (site GAGTCCACTAC) (LTG core: AC, RTG core: AC) | 0.0932
ACGGGACAATGGGTTCTAACCTGTTGCAGAG [ACGGGACCTCT_LTGcore_AA_RTGcore_CT] (site ACGGGACCTCT) (LTG core: AA, RTG core: CT) | 0.0324
AGGCGGTCTTGGGTTCTAACCTGTTGCTTGA [AGGCGGTCTAA_LTGcore_CT_RTGcore_TC] (site AGGCGGTCTAA) (LTG core: CT, RTG core: TC) | 0.107
AAACACAGGTGGGTTCTAACCTGTTGCCTAG [AAACACACTAG_LTGcore_GG_RTGcore_CT] (site AAACACACTAG) (LTG core: GG, RTG core: CT) | 0.463
CGAGCCCTCTGGGTTCTAACCTGTTGCTGGA [CGAGCCCCTCA_LTGcore_TC_RTGcore_TC] (site CGAGCCCCTCA) (LTG core: TC, RTG core: TC) | 0.139
CATATTAGGTGGGTTCTAACCTGTTGCCTCC [CATATTACTAG_LTGcore_GG_RTGcore_GG] (site CATATTACTAG) (LTG core: GG, RTG core: GG) | 0.117
TCGCGACAGTGGGTTCTAACCTGTTGCCGCT [TCGCGACCTCG_LTGcore_AG_RTGcore_AG] (site TCGCGACCTCG) (LTG core: AG, RTG core: AG) | 0.128
GTCGCCCCGTGGGTTCTAACCTGTTGCTACG [GTCGCCCCTTA_LTGcore_CG_RTGcore_CG] (site GTCGCCCCTTA) (LTG core: CG, RTG core: CG) | 0.316
GCGCGACCTTGGGTTCTAACCTGTTGCTTCG [GCGCGACCTAA_LTGcore_CT_RTGcore_CG] (site GCGCGACCTAA) (LTG core: CT, RTG core: CG) | 0.116
